Experiments:
[1] = biological target: T1, activated (phosphorylated) MAPK13 (Homo sapiens, UniProt O15264); test: MAPK13 kinase inhibition assay; format: biochemical; conditions: for fold less potent (IC50) than compounds 58 and 61: MAPK13 IC50 comparison; for IC50 (MAPK13): steady-state enzyme inhibition, 3 μM ATP, stated as range in words
T1 sequence (O15264 1-365): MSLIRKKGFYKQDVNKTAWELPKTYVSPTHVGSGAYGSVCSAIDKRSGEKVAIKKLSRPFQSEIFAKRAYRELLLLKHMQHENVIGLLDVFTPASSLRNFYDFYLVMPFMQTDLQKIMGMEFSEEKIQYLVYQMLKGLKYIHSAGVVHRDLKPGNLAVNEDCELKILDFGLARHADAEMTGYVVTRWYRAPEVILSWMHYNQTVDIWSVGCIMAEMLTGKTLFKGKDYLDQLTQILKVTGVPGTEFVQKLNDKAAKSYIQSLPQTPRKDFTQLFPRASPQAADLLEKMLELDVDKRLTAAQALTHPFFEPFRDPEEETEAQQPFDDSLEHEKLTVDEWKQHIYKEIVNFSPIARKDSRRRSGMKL

MAPK14 = MAPK14 (Homo sapiens, UniProt Q16539); test: Differential scanning fluorimetry; format: binding
[2] = biological target: T2, MAPK13 (unphosphorylated) (Homo sapiens, UniProt O15264); test: Differential scanning fluorimetry; format: binding
T2 sequence (O15264 1-365): T1 sequence (O15264 1-365)

MAPK13 = conditions: read-out: IC50 [MAPK13]; cited from earlier work

Chain of MAPK14 (Q16539 whole entry, species assumed): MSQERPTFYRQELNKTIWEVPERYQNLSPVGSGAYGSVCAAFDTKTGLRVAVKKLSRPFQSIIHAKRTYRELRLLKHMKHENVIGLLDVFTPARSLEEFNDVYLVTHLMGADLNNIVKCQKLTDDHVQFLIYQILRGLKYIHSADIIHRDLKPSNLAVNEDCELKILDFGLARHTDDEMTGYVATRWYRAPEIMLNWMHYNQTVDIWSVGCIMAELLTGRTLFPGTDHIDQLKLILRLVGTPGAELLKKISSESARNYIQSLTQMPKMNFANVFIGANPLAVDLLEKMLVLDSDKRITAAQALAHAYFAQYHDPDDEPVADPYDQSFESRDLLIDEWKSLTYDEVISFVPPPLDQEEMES

| Kd [2] [nM] | Compound | fold less potent (IC50) than compounds 58 and 61 [1] | ATm-MAPK14 (°C) (MAPK14) | IC50 (MAPK13) [1] | IC50 (MAPK13) [nM] |
| --- | --- | --- | --- | --- | --- |
| – | O=C(Nc1ccc(Oc2ccncc2)cc1)c1ccnc(N2CCOCC2)c1 [Compound 124] | over 800 fold | −0.8± 0.3 | – | – |
| – | Cc1cn(-c2cccc(C(=O)Nc3ccc(Oc4ccncc4)cc3)c2)cn1 [Compound 117, 3-(4-methyl-1H-imidazol-1-yl)-N-[4-(pyridin-4-xyloxy)phenyl] benzamide] | over 800 fold | – | micromolar range | – |
| 1900 ± 300 | Cn1nc(C(C)(C)C)cc1NC(=O)Nc1ccc(Sc2ccncc2)cc1 [Compound 58, 1-(3-tert-butyl-1-methyl-1H-pyrazol-5-yl)-3-[4-(pyridin-4-ylsulfanyl)phenyl]urea] | – | – | nanomolar range | – |

Source: publication PMC5011001 (Biochimica et biophysica acta, 2016)
